From patent US9717717B1, “Methods of treating cancer through the inhibition of USP7 and immune system modulation” (Progenra, Inc., priority 2015, dated 2017)

Assays:
USP7core WT = molecular target: T1, USP7core WT (Homo sapiens, UniProt Q93009); test: LC-MS detection of covalent adduct with purified USP7core WT; assay type: binding; settings: 5 μM USP7core WT, 100 μM compound, room temperature, 4 hrs
T1 construct: 5 μM purified USP7core WT or active site cysteine mutant C223A were incubated with 100 μM Compound 5
Method: (§1) FIG. 4 provides data showing an example of the covalent irreversible nature of disclosed USP7 inhibitors. 5 μM purified USP7core WT or active site cysteine mutant C223A were incubated with 100 μM Compound 5 or DMSO at room temperature for 4 hrs, and then the protein/compound reaction products were mixed with equal volume of 0.1% Trifluoroacetic acid (TFA) before LC-MS injection. The samples were analyzed by reverse-phase liquid chromatography coupled to UV and MS detection (Agilent, 6220 Accurate-Mass Time-of-Flight (TOF) LC/MS). […] FIG. 4 provides data showing an example of the covalent irreversible nature of disclosed USP7 inhibitors. 5 μM purified USP7core WT or active site cysteine mutant C223A were incubated with 100 μM Compound 5 or DMSO at room temperature for 4 hrs, and then the protein/compound reaction products were mixed with equal volume of 0.1% Trifluoroacetic acid (TFA) before LC-MS injection. The samples were analyzed by reverse-phase liquid chromatography coupled to UV and MS detection (Agilent, 6220 Accurate-Mass Time-of-Flight (TOF) LC/MS).

USP7 core C223A = USP7 core C223A (Homo sapiens, UniProt Q93009, C223A); test: LC-MS detection of covalent adduct with USP7 core active site cysteine mutant C223A; assay type: binding; settings: 5 μM C223A, 100 μM compound, room temperature, 4 hrs
Method: as §1

USP7 = molecular target: T2, USP7 (Homo sapiens, UniProt Q93009); test: DUB activity of USP7 immunoprecipitated from treated Jurkat cells (Ub-EKL assay); assay type: cell-based; settings: for USP7 catalytic activity returned after washout: Jurkat cells exposed for 2 hours
T2 construct: endogenous in cells; host or cells: Jurkat
Method: FIG. 5A-FIG. 5C graphically illustrate that the disclosed USP7 inhibitors of the invention are irreversible inhibitors. Jurkat cells were treated with 10 μM USP7i for indicated time period (FIG. 5A) or pulse treated for 2 h with 10 μM compound 5 (FIG. 5B), washed and incubated for the indicated time period followed by DUB activity measurement of immunoprecipitated USP7 as well as total cell lysate (FIG. 5C) using Ub-EKL assay as described previously (U.S. Pat. No. 8,680,139). A portion of the immunoprecipitated USP7 is separated on 10% SDS-PAGE and immunoblotted with anti-USP7 antibody to detect the level of USP7 protein (shown at the top of graphs in FIG. 5A and FIG. 5B). […] Jurkat cells were exposed to Compound 5 for 2 hours and the compounds were washed away followed by incubation for various time points. Cells were harvested, lysed and their USP7 immunoprecipitated and washed with buffer. […] Jurkat cells were incubated with an exemplary compound of the present invention (e.g., compound 5), washed, and incubated for an additional 0-96 h. USP7 was immunoprecipitated from lysates and USP7 activity measured. […] Total cell deubiquitinase activity can be performed to determine selectivity of these compounds (FIG. 5C). These experiments delineate a simple, powerful biomarker for determining the dose-efficacy relationship in the pre-clinical/clinical evaluation of irreversible USP7 inhibitors. Inhibitors were also tested in cells for effects on various PD markers, including two major USP7 substrates, HDM2 and UHRF1.

HDM2 = test: Immunoblot of HDM2 level in treated Jurkat cells; assay type: cell-based; settings: immunoblot (FIG. 6)
Method: (§2) FIG. 6 graphically illustrates a decrease in USP7 oncogenic substrates HDM2 and UHRF1 levels in Jurkat cells treated with the USP7i compound 5. 20 μg total cell lysates from each samples were separated on 10% SDS-PAGE and immunoblotted with antibodies against HDM2, UHRF1 and Actin (loading control).
(§3) Jurkat cells were incubated with an exemplary compound of the present invention (e.g., compound 5), washed, and incubated for an additional 0-96 h. USP7 was immunoprecipitated from lysates and USP7 activity measured. […] Total cell deubiquitinase activity can be performed to determine selectivity of these compounds (FIG. 5C). These experiments delineate a simple, powerful biomarker for determining the dose-efficacy relationship in the pre-clinical/clinical evaluation of irreversible USP7 inhibitors. Inhibitors were also tested in cells for effects on various PD markers, including two major USP7 substrates, HDM2 and UHRF1.

UHRF1 = test: Immunoblot of UHRF1 level in treated Jurkat cells; assay type: cell-based; settings: immunoblot (FIG. 6)
Method: as §2, §3

Murine Tregs = test: 3-day Treg suppression assay (CFSE-labeled T effector cell proliferation, FACS); assay type: cell-based; settings: Tregs pre-treated with 10 μM for 2 h, washed (FIG. 7)
Method: FIG. 7 graphically illustrates the inhibition of Treg functions after treatment with USP7 inhibitor compound 5. Murine Tregs were pre-treated with compound 5 for 2 hrs, washed and incubated with carboxyfluorescein succinimidyl ester (CFSE) labeled T effector cells at varying concentrations for 3 days. T effector cell proliferation was monitored using FACS analysis. Percentage proliferation is plotted using Graphpad prism.
Initial in vitro determination of the effect of compounds on the Treg-Teff system was performed by co-culturing drug pretreated Treg cell with Teff cells for three days and determining the Teff proliferation by flow cytometry. The compounds that were active in enhancing Teff growth were then examined for their effect on biomarkers. The most interesting compounds were tested for their effect on tumor growth in immune competent mice inoculated with lung cancer cells subcutaneously.
3-day Treg suppression assay in which isolated Tregs were treated with DMSO or experimental compound, washed and added to wells in which T cell proliferation was induced by CD3 mAb plus APC; % proliferation of CFSE-labeled conventional (Tcon) cells is shown in blue for each Treg:Tcon ratio. […] Flow cytometry confirmed marked or moderate down-regulation of Foxp3 expression by Treg cells exposed to potential inhibitor for 2 hrs. […]

TC1 lung tumor = test: TC1 flank tumor model in immunocompetent mice; assay type: in vivo, B6 mice
Method: Inhibition was statistically significant at the p<0.05 level (**).
USP7 targeting inhibits flank tumor growth via a Treg-dependent mechanism in immunocompetent mice (FIGS. 8A and 8B). Eight week-old B6 mice were injected with 5×10^5 TC1 tumor cells, and 1 week later, when tumors had reached ˜100 mm^3, mice were implanted with 14 day Alzet pumps containing vehicle or USP7i at doses 0.6 mg/kg, 1 mg/kg, and 6 mg/kg. Tumor growth was measured twice weekly for 2 weeks, and the study continued for an additional time period without further dosing. At sacrifice, spleens, draining lymph nodes (DLN), and tumors can be assessed by flow cytometry, histology, immunohistology and qPCR. Such studies can be performed in both immunocompetent and immunodeficient mice.

[1] = pooled analysis of 14 phase I-III studies, various doses; cited from earlier work

T2 sequence (Q93009 whole entry): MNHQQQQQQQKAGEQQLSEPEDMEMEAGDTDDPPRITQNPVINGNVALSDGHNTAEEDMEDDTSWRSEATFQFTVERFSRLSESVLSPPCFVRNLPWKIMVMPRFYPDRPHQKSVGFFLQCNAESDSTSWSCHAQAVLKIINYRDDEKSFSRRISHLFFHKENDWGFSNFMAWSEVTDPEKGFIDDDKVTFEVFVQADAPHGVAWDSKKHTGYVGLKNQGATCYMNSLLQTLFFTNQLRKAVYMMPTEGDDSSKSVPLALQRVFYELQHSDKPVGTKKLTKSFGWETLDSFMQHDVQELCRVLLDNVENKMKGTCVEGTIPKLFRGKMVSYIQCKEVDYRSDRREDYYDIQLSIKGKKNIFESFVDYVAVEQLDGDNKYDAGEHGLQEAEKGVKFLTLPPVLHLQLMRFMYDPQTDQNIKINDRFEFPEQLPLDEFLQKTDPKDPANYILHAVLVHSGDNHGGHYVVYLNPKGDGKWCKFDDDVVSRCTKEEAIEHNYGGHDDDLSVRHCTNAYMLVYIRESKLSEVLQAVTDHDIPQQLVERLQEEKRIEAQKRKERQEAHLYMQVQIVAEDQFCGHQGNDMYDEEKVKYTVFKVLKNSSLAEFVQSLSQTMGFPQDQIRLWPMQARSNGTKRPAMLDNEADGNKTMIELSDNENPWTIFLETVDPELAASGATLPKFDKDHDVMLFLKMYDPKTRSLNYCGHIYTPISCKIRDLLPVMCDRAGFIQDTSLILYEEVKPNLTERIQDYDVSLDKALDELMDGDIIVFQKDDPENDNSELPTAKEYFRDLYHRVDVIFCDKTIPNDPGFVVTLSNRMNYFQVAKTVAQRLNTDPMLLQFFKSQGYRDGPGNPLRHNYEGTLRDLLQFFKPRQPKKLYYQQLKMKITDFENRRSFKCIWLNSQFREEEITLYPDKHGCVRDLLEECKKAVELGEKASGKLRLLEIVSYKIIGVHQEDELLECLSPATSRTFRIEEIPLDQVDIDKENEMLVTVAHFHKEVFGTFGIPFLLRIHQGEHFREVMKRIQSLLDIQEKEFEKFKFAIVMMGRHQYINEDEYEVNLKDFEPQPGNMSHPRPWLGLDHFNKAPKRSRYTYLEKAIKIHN
Chain of USP7 core C223A (Q93009 214-521 C223A limits assumed): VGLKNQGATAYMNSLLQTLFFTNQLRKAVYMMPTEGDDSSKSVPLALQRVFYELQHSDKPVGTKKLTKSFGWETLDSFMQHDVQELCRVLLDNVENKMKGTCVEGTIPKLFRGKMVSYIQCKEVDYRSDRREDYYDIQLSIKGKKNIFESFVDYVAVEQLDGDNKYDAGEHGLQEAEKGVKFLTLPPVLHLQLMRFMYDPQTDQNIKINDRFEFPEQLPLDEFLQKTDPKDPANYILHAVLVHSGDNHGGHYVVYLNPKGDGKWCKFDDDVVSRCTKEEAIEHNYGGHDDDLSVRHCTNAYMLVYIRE
T1 sequence (Q93009 214-521 limits assumed): as the sequence (Q93009 214-521 C223A limits assumed) above, with A10C counted along it

Row | Molecule | covalent adduct formation with USP7 core (USP7core WT) | covalent adduct formation with USP7 core C223A (USP7 core C223A) | USP7 catalytic activity returned after washout (USP7; washed, after 48 hours) | USP7 catalytic activity returned after washout (USP7; washed, after 72 hours) | USP7 activity after pulse treatment (USP7; Jurkat cells, 10 μM for 2 h, washed, even after 72 h (FIG. 5B)) | catalytic activity of isolated USP7 (USP7; Jurkat cells, incubation with inhibitor for 1 h (FIG. 5A)) | HDM2 level (HDM2) | UHRF1 level (UHRF1) | Treg suppressive functions (Murine Tregs) | TC1 lung tumor growth (TC1 lung tumor; Day 16, statistically significant p<0.05 (FIG. 8A, 8B)) | tumor regression (TC1 lung tumor; TC1 tumors (FIG. 8B)) | patients with immune-related adverse effects [1]
1 | CS(=O)(=O)c1cccc(NC(=O)c2cc([N+](=O)[O-])c(Sc3c(Cl)cncc3Cl)s2)c1 [Compound 5, 5-[(3,5-dichloropyridin-4-yl)sulfanyl]-N-[3-(methylsulfonyl)phenyl]-4-nitrothiophene-2-carboxamide] | formed a covalent adduct | failed to form an adduct | about 55% | 68% | prolonged inhibition of USP7 activity | significant inhibition of catalytic activity | decrease | decrease | marked impairment of Treg suppressive functions | inhibition of TC1 lung tumor growth | complete tumor regression in several mice | 
2 | ipilimumab |  |  |  |  |  |  |  |  |  |  |  | 64%
